Reference: patent US9226929B2, “Pharmaceutically active disubstituted triazine derivatives” (Bayer Intellectual Property GMBH, priority 2011, dated 2016)

Key:
CDK2/CyclinA [1] = target: T1, CDK2/CyclinA (Homo sapiens, UniProt P24941); experiment: Lance Ultra KinaSelect Assay, CDK2; format: biochemical; conditions: ATP 3 μM; read-out: CDK2 LANCE assay (activity range), IC50
T1 construct: GST; purchased Proqinase
Protocol: (§1) 2. Measurement of half maximal inhibitory concentration to CDKs This protocol describes how the Lance Ultra KinaSelect Assay was performed to determine half maximal inhibitory concentration (1050) of compounds of general formula (I) and CDK/Cyclin complexes. The principle behind this enzymatic assay is based upon the phosphorylation of the ULight-Peptide Substrat. It is detected by using a specific
(§2) EU-labeled anti-phospho peptide antibody. The binding of the Eu-labeled anti-phospho peptide antibody to the phosphorylated ULight labeled peptide gives rise to a FRET-signal. Binding of an inhibitor to the kinase prevents phosphorylation of the ULight-MBP Substrat, resulting in a loss of FRET.
(§3) The compounds of general formula (I) summarized in Table 5 were diluted from a 10 mM DMSO stock solution 1:10 in a total volume of 15 μL DMSO. This compound predilution was then serial diluted 1:3 over 8 steps in DMSO and briefly spun down. Each compound solution was now diluted 1:20 in Enzymatic Buffer (HEPES: 50 mM, pH: 7.5; MgCl2: 10 mM; EGTA: 1 mM; DTT: 2 mM; Tween-20: 0.01%), mixed thoroughly and spun down. For every sample, 2 μL of the diluted compound were mixed with 6 μL CDK/Cyclin/Substrat solution and 2 μL ATP solution in a well of a small volume 384 well plate (Corning Incorporated, Corning, N.Y., USA; order no. 3673). The CDK/Cyclin was diluted to the appropriate concentration (see Table 3) and the ATP concentration was adjusted to its […] for the CDK/Cyclin, which was 3 μM for CDK2/Cyclin A, 20 μM for CDK1/Cyclin B1, 25 μM for CDK7/Cyclin H and CDK9/Cyclin T1, 55 μM for CDK6/Cyclin D3, 90 μM for CDK4/Cyclin D1 and 125 μM for CDK9/Cyclin K. For negative controls, in each well 2 μL of DMSO solution (1% final DMSO assay concentration) was mixed with 6 μL substrate solution (50 nM ULight MBP final assay concentration) and 2 μL ATP solution (appropriate final concentration see Table 3). For positive controls, in each well 2 μL of DMSO solution (1% final DMSO assay concentration) was mixed with 6 μL CDK/Cyclin/Substrat (appropriate final concentration see Table 3) and 2 μL Tracer ATP solution (appropriate final concentration see Table 3). Positive and negative controls were calculated from at least 8 different sample wells. The 384 well plates were mixed in a Teleshaker plate mixer (Beckman Coulter, Brea, Calif., USA) at 2000 rpm for 40 sec, and incubated for 1 h at room temperature. Before reading, 10 μL the detection buffer (Lance Detection Buffer 1×; EDTA: […]; Eu-Anti-P-MBP: see Table 3) was added. The FRET signal was measured at 340 nm excitation, 665 nm and 615 nm emission (for the kinase tracer and LanthaScreen Eu-AB, respectively) with an Envision spectrophotometer (Perkin Elmer, Waltham, Mass., USA) with 50 μs delay and 300 μs integration time. IC50 values were determined from the sigmoidal dose response curves with the software Quattro Workflow (Quattro GmbH, Munich, Germany).

CDK9/Cyclin K = target: T2, CDK9/Cyclin K (Homo sapiens, UniProt P50750); experiment: LanthaScreen Eu Kinase Binding Assay, CDK9/Cyclin K; conditions: tracer 236, read-out: CDK9/Cyclin K (activity range), Kd
T2 construct: His; purchased Invitrogen
Summary of the method: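 TR-FRET displacement of an Alexa Fluor 647 active-site tracer, detected with a Eu anti-GST antibody, over an 8-point 1:3 compound series. Tracer was set at its Kd (30 nM for CDK2/Cyclin A, CDK7 and CDK9/Cyclin T1; 35 nM for CDK9/Cyclin K). Read after 1 h at room temperature; Kd was fitted from sigmoidal curves.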

CDK7/CyclinH/MAT1 = target: T3, CDK7/CyclinH/MAT1 (Homo sapiens, UniProt P50613); experiment: Lance Ultra KinaSelect Assay, CDK7; format: biochemical; conditions: ATP 25 μM; read-out: CDK7 LANCE assay (activity range), IC50
T3 construct: His; purchased Carna Biosciences
Protocol: as §1, §2, §3

CDK1/CyclinB1 = target: T4, CDK1/CyclinB1 (Homo sapiens, UniProt P06493); experiment: Lance Ultra KinaSelect Assay, CDK1; format: biochemical; conditions: ATP 20 μM; read-out: CDK1 LANCE assay (activity range), IC50
T4 construct: purchased Carna
Protocol: as §1, §2, §3

CDK2/CyclinA [2] = target: T1, CDK2/CyclinA; experiment: LanthaScreen Eu Kinase Binding Assay, CDK2; conditions: tracer 236, read-out: CDK2 (activity range), Kd
Protocol: This protocol describes how the LanthaScreen Eu Kinase Binding Assay was performed to determine dissociation constants (Kd) of compounds of general formula (I) and CDK/Cyclin complexes. The principle behind this assay is based upon the binding and displacement of an Alexa Fluor 647-labeled tracer, which binds to the active site of kinases. Binding of the tracer to the kinase is detected using a Eu-labeled antibody. Simultaneous binding of both the tracer and antibody to the kinase gives rise to a FRET-signal. Binding of an inhibitor to the kinase competes for binding with the tracer, resulting in a loss of FRET.
The compounds of general formula (I) summarized in Table 1 were diluted from a 10 mM DMSO stock solution 1:10 in a total volume of 15 μL DMSO. This compound predilution was then serial diluted 1:3 over 8 steps in DMSO and briefly spun down. Each compound solution was now diluted 1:33.33 in kinase buffer (HEPES: 20 mM, pH: 8.0; MgCl2: 10 mM; DTT: 1 mM; Brij-35: 0,01%), mixed thoroughly and spun down. For every sample, 5 μL of the diluted compound were mixed with 5 μL tracer working solution (e.g. 60 nM tracer 236 in kinase buffer for CDK2/Cyclin A) and 5 μL CDK/Cyclin/Anti-GST-AB-working solution (e.g. 15 nM CDK2/Cyclin A, 1:250 dilution of Anti-GST-AB in kinase buffer) in a well of a small volume 384 well plate (Corning Incorporated, Corning, N.Y., USA; order no. 3673). The tracer concentration was adjusted to its dissociation constant (Kd) for the CDK/Cyclin, which was 30 nM for CDK2/Cyclin A, CDK7/Cyclin H and CDK9/Cyclin T1, 20 nM for CDK8/Cyclin C, and 35 nM for CDK9/Cyclin K. For negative controls, in each well 5 μL of DMSO working solution (3% DMSO diluted in kinase buffer) was mixed with 5 μL Anti-GST-AB working solution (e.g. 1:250 dilution of Anti-GST-AB in kinase buffer for CDK2/Cyclin A) and 5 μL Tracer working solution (e.g. 60 nM Tracer 236 in kinase buffer for CDK2/Cyclin A). For positive controls, in each well 5 μL of DMSO working solution (3% DMSO diluted in kinase buffer) was mixed with 5 μL CDK/Cyclin/Anti-GST-AB-working solution: (e.g. 15 nM CDK2/Cyclin A, 1:250 dilution of Anti-GST-AB in kinase buffer) and 5 μL Tracer working solution (e.g. 60 nM Tracer 236 in kinase buffer for CDK2/Cyclin A). Positive and negative controls were calculated from at least 8 different sample wells. The 384 well plates were mixed in a Teleshaker plate mixer (Beckman Coulter, Brea, Calif., USA) at 2000 rpm for 40 sec, and incubated for 1 h at room temperature before reading. The FRET signal was measured at 340 nm excitation, 665 nm and 615 nm emission (for the kinase tracer and LanthaScreen Eu-AB, respectively) with an Envision spectrophotometer (Perkin Elmer, Waltham, Mass., USA) with […]. Kd values were determined from the sigmoidal dose response curves with the software Quattro Workflow (Quattro GmbH, Munich, Germany).

T3 sequence (P50613 whole entry): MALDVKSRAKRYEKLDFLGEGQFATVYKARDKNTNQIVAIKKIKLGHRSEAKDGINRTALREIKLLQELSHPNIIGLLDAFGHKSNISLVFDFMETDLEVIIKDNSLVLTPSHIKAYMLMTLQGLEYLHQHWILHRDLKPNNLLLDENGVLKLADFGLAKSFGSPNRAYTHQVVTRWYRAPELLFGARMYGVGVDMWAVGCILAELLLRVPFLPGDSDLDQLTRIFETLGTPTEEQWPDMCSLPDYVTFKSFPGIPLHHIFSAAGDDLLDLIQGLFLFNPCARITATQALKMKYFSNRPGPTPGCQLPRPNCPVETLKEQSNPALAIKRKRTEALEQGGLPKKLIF
T3 sequence (P51946 whole entry partner): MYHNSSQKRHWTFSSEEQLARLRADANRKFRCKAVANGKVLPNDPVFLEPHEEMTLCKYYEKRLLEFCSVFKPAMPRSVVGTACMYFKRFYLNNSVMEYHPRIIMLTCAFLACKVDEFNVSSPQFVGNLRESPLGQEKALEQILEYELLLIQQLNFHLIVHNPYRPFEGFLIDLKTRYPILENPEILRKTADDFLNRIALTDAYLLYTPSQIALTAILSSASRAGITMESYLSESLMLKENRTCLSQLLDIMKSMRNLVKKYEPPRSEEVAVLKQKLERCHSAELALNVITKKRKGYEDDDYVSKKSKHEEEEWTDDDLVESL
T3 sequence (P51948 whole entry partner): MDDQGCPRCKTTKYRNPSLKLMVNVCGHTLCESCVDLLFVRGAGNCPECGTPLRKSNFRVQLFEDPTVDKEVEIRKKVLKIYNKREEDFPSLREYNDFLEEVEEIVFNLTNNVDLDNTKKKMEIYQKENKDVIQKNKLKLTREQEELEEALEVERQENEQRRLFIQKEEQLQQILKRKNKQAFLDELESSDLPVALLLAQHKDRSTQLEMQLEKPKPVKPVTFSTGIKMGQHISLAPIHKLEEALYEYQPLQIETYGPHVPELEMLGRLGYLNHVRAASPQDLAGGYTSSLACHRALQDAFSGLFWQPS
T4 sequence (P06493 whole entry): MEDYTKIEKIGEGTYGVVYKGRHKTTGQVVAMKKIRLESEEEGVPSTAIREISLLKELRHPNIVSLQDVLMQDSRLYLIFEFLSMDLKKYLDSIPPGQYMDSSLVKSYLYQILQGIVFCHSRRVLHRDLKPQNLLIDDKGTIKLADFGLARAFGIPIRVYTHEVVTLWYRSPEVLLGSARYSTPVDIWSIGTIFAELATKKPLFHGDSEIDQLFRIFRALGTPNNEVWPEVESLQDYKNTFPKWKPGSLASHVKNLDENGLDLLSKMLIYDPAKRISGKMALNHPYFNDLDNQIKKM
T4 sequence (P14635 whole entry partner): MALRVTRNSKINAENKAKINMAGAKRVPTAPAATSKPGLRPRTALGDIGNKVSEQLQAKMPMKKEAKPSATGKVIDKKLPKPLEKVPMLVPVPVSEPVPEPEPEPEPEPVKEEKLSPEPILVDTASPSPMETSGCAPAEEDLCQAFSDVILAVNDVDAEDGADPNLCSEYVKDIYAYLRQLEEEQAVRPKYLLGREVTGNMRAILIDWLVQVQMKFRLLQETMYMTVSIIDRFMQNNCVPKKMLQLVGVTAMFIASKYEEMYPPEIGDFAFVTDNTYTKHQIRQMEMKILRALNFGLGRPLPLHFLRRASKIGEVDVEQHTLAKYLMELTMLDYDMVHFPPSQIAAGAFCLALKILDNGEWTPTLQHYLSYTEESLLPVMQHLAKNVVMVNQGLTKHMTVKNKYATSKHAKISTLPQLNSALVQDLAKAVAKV
T2 sequence (P50750 whole entry): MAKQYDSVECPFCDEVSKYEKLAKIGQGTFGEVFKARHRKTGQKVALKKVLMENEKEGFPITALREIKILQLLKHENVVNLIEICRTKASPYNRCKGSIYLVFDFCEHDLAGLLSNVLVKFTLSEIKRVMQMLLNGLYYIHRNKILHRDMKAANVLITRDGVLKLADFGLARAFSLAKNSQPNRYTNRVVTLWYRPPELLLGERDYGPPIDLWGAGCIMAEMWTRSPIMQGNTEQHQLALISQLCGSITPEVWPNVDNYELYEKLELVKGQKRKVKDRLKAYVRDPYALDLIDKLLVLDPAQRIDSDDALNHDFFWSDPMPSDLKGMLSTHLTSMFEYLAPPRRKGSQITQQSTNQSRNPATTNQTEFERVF
T2 sequence (O75909 1-357 isoform O75909-1 partner): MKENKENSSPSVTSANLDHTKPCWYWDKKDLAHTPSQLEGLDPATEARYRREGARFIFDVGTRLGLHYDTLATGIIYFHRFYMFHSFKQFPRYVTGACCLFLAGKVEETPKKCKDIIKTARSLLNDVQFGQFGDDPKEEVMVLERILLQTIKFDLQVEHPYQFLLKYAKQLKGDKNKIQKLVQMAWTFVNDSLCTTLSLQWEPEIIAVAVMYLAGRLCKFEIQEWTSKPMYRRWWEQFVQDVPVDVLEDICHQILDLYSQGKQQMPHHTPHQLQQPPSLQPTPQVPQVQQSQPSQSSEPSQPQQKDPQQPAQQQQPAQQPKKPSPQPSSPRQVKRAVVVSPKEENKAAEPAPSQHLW

Structure (SMILES) | IC50 (CDK2/CyclinA [1]) [µM] | Kd (CDK9/Cyclin K) [µM] | IC50 (CDK7/CyclinH/MAT1) [µM] | IC50 (CDK1/CyclinB1) [µM] | Kd (CDK2/CyclinA [2]) [µM]
NS(=O)(=O)Cc1cccc(Nc2ncnc(N3CCCC3c3ccccc3)n2)c1 (racemic) [Compound B33, rac-3-[(4-(2-Phenylpyrrolidin-1-yl)-1,3,5-triazin-2-yl)amino]-benzenemethanesulfonamide] | > 10 | < 0.1 | > 10 | 1 to 10 | 
NS(=O)(=O)Cc1cccc(Nc2ncnc(N3CCCCC3)n2)c1 [Compound B1, 3-[(4-(Piperidin-1-yl)-1,3,5-triazin-2-yl)amino]benzenemethane sulfonamide] | > 10 | 0.1 to 1 | > 10 | > 10 | > 10
COC[C@H]1CCCN1c1ncnc(Nc2cccc(CS(N)(=O)=O)c2)n1 [Compound B17, (R)-3-[(4-(2-(Methoxymethyl)pyrrolidin-1-yl)-1,3,5-triazin-2-yl)amino]benzenemethanesulfonamide] | 1 to 10 | 0.1 to 1 | > 10 | 1 to 10 | 1 to 10
COC(=O)[C@H]1CCCN1c1ncnc(Nc2cccc(CS(N)(=O)=O)c2)n1 [Compound B21, (R)-Methyl 1-[4-((3-(Sulfamoylmethyl)phenyl)amino)-1,3,5-triazin-2-yl]pyrrolidine-2-carboxylate] |  | 0.1 to 1 |  |  | 1 to 10
NS(=O)(=O)Cc1cccc(Nc2ncnc(N3CCc4ncccc4C3)n2)c1 [Compound B38, 3-[(4-(7,8-Dihydro-1,6-naphthyridin-6(5H)-yl)-1,3,5-triazin-2-yl)amino]-benzenemethanesulfonamide] | 0.1 to 1 | < 0.1 | > 10 | 0.1 to 1 | 0.1 to 1
NS(=O)(=O)Cc1cccc(Nc2ncnc(N3CCc4nc[nH]c4C3)n2)c1 [Compound B44, 3-[(4-(6,7-Dihydro-3H-imidazo[4,5-c]pyridin-5(4H)-yl)-1,3,5-triazin-2-yl)amino]benzenemethanesulfonamide] |  | < 0.1 |  |  | < 0.1
NS(=O)(=O)Cc1cccc(Nc2ncnc(N3CCc4ncsc4C3)n2)c1 [Compound B45, 3-[(4-(6,7-Dihydrothiazolo[5,4-c]pyridin-5(4H)-yl)-1,3,5-triazin-2-yl)amino]benzenemethanesulfonamide] | < 0.1 |  | 1 to 10 |  | < 0.1
NS(=O)(=O)Cc1cccc(Nc2ncnc(N3CCCn4nccc43)n2)c1 [Compound B47, 3-[(4-(6,7-Dihydropyrazolo[1,5-a]pyrimidin-4(5H)-yl)-1,3,5-triazin-2-yl)amino]benzenemethanesulfonamide] | < 0.1 | < 0.1 | 1 to 10 | 0.1 to 1 | < 0.1
NS(=O)(=O)Cc1cccc(Nc2ncnc(N3Cc4cn[nH]c4C3)n2)c1 [Compound B51, 3-[(4-(Pyrrolo[3,4-c]pyrazol-5(1H,4H,6H)-yl)-1,3,5-triazin-2-yl)amino]-benzenemethanesulfonamide] | 0.1 to 1 | < 0.1 | > 10 | 1 to 10 | 1 to 10
